Measurements reported in patent US9242996B2 (Novartis AG, priority 2013, dated 2016).

What follows are compounds tested against activated ERK2 (Homo sapiens (Human), UniProt P28482) (assay: Activated ERK2 kinase assay, ERK2 New conditions (AlphaScreen, ERKtide phosphorylation)). Conditions: 0.25 nM ERK2, 200 nM ERKtide peptide, 35 μM ATP, 30 min preincubation.
Assay type: biochemical
Method in brief: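 Read-out is AlphaScreen with anti-phospho-EGFR (Thr669) antibody after EDTA quench and overnight dark incubation. Reaction: 0.25 nM ERK2, 30 min compound preincubation, then 200 nM ERKtide plus 35 µM ATP for 2–3 h at ambient temperature, pH 7.5. IC50 by four-parameter fit.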

Sequence of activated ERK2 (P28482 whole entry): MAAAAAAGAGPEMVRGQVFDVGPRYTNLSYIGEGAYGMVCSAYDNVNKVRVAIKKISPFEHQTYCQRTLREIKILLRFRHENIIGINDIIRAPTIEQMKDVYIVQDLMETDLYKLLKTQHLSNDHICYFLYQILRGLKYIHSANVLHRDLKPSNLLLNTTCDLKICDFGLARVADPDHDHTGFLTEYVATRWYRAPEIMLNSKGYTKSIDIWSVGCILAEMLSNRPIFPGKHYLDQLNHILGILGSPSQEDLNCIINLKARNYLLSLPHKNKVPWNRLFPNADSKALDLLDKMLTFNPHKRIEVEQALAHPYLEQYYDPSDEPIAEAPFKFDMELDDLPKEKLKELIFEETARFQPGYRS

Row | SMILES | IC50
1 | N=C1OC[C@@H]2C[C@H](c3cnc(N)c(-c4ccc(C(=O)N[C@H](CO)c5cccc(Cl)c5)c(F)c4)c3)CN12 [Example 10, 4-(2-amino-5-((6R,7aS)-3-iminohexahydropyrrolo[1,2-c]oxazol-6-yl)pyridin-3-yl)-N—((S)-1-(3-chlorophenyl)-2-hydroxyethyl)-2-fluorobenzamide] | 12.1 nM
2 | CNC(=O)CCc1cnc(N)c(-c2ccc(C(=O)NCc3ccccc3)c(F)c2)n1 [Example 20, 4-(3-amino-6-(3-(methylamino)-3-oxopropyl)pyrazin-2-yl)-N-benzyl-2-fluorobenzamide] | 1090 nM
3 | C[C@@H](NC(=O)c1ccc(-c2cc(C3CCN(C)C(=O)C3)cnc2N)cc1F)c1ccccc1 (stereo partly drawn) [Example 29, 4-(2-amino-5-(1-methyl-2-oxopiperidin-4-yl)pyridin-3-yl)-2-fluoro-N—((R)-1-phenylethyl)benzamide] | 75.2 nM
4 | C[C@@H](NC(=O)c1ccc(-c2cc(C3CCC(=O)NC3)cnc2N)cc1F)c1cccc(Cl)c1 (mixture of isomers) [Example 119, 4-(2-amino-5-(6-oxopiperidin-3-yl)pyridin-3-yl)-N-((R)-1-(3-chlorophenyl)ethyl)-2-fluorobenzamide] | 0.549 nM
5 | Nc1ncc(C2CCC3(CC2)OCCO3)nc1-c1ccc(C(=O)NCc2ccccc2)c(F)c1 [Example 413, 4-(3-amino-6-(1,4-dioxaspiro[4.5]decan-8-yl)pyrazin-2-yl)-N-benzyl-2-fluorobenzamide] | 204 nM
6 | CS(=O)(=O)c1cccc(CNC(=O)c2ccc(-c3nc(C4CCOCC4)cnc3N)cc2)c1 [Example 323, 4-(3-amino-6-(tetrahydro-2H-pyran-4-yl)pyrazin-2-yl)-N-(3-(methylsulfonyl)benzyl)benzamide] | 3.29 nM
7 | Nc1ncc(C2CCC(=O)NC2)cc1-c1ccc(C(=O)NCc2ccccc2)c(F)c1 (racemic) [Example 118, (+/−)-4-(2-amino-5-(6-oxopiperidin-3-yl)pyridin-3-yl)-N-benzyl-2-fluorobenzamide] | 17.6 nM
8 | Nc1ncc(-c2cn[nH]c2)nc1-c1ccc(C(=O)N[C@H](CO)c2ccccc2)c(F)c1 [Example 268, (S)-4-(3-amino-6-(1H-pyrazol-4-yl)pyrazin-2-yl)-2-fluoro-N-(2-hydroxy-1-phenylethyl) benzamide] | 4.8 nM
9 | Nc1ncc([C@H]2C[C@H]3COCC(=O)N3C2)cc1-c1ccc(C(=O)N[C@H](CO)c2cccc(Cl)c2)c(F)c1 [Example 8, 4-(2-amino-5-((7R,8aS)-4-oxohexahydro-1H-pyrrolo[2,1-c][1,4]oxazin-7-yl)pyridin-3-yl)-N—((S)-1-(3-chlorophenyl)-2-hydroxyethyl)-2-fluorobenzamide] | 4.12 nM
10 | Nc1ncc(C2CCOCC2)nc1-c1ccc2c(c1)OCCN(Cc1ccccc1)C2=O [Example 109, 8-(3-amino-6-(tetrahydro-2H-pyran-4-yl)pyrazin-2-yl)-4-benzyl-3,4-dihydrobenzo[f][1,4]oxazepin-5(2H)-one] | 5.81 nM
11 | Cn1nccc1-c1cnc(N)c(-c2ccc(C(=O)N[C@H](CO)c3cc(F)cc(Cl)c3)c(F)c2)c1 [Example 232, (S)-4-(2-amino-5-(1-methyl-1H-pyrazol-5-yl)pyridin-3-yl)-N-(1-(3-chloro-5-fluorophenyl)-2-hydroxyethyl)-2-fluorobenzamide] | 0.257 nM
12 | Nc1ncc(C2CCS(=O)(=O)C2)cc1-c1ccc(C(=O)NCc2ccccc2)c(F)c1 (racemic) [Example 4, 4-(2-amino-5-(1,1-dioxidotetrahydrothiophen-3-yl)pyridin-3-yl)-N-benzyl-2-fluorobenzamide] | 315 nM
13 | CS(=O)(=O)N1CCC(c2cnc(N)c(-c3ccc(C(=O)N[C@H](CO)c4ccccc4)c(F)c3)c2)C1 (stereo partly drawn) [Example 63, 4-(2-amino-5-(1-(methylsulfonyl)pyrrolidin-3-yl)pyridin-3-yl)-2-fluoro-N-((S)-2-hydroxy-1-phenylethyl)benzamide] | 23.3 nM
14 | Cn1cc(-c2cnc(N)c(-c3ccc(C(=O)NCc4nccs4)c(F)c3)c2)cn1 [Example 238, 4-(2-amino-5-(1-methyl-1H-pyrazol-4-yl)pyridin-3-yl)-2-fluoro-N-(thiazol-2-ylmethyl) benzamide] | 352 nM
15 | Cn1nncc1-c1cnc(N)c(-c2ccc(C(=O)N[C@H](CO)c3ccccc3)c(F)c2)c1 [Example 304, (S)-4-(2-amino-5-(1-methyl-1H-1,2,3-triazol-5-yl)pyridin-3-yl)-2-fluoro-N-(2-hydroxy-1-phenylethyl) benzamide] | 2.5 nM
16 | Nc1ncc(-c2ccnnc2)nc1-c1ccc(C(=O)N[C@H](CO)c2ccccc2)c(F)c1 [Example 144, (S)-4-(3-amino-6-(pyridazin-4-yl)pyrazin-2-yl)-2-fluoro-N-(2-hydroxy-1-phenylethyl)benzamide] | 1.18 nM
17 | CC1(c2cnc(N)c(-c3ccc(C(=O)N[C@H](CO)c4ccccc4)c(F)c3)c2)CCOCC1 [Example 45, (S)-4-(2-Amino-5-(4-methyltetrahydro-2H-pyran-4-yl)pyridin-3-yl)-2-fluoro-N-(2-hydroxy-1-phenylethyl)benzamide] | 3.61 nM
18 | COC1CCC(c2cnc(N)c(-c3ccc(C(=O)NCc4ccccc4)c(F)c3)n2)C1 (stereo not shown) [Example 104, 4-(3-amino-6-(3-methoxycyclopentyl)pyrazin-2-yl)-N-benzyl-2-fluorobenzamide] | 191 nM
19 | CCOCCc1cnc(N)c(-c2ccc(C(=O)N[C@H](CO)c3ccccc3)c(F)c2)n1 [Example 72, (S)-4-(3-amino-6-(2-ethoxyethyl)pyrazin-2-yl)-2-fluoro-N-(2-hydroxy-1-phenylethyl)benzamide] | 177 nM
20 | Cn1cc(-c2cnc(N)c(-c3ccc(C(=O)N[C@H](CO)c4ccccc4)cc3)n2)cn1 [Example 146, (S)-4-(3-amino-6-(1-methyl-1H-pyrazol-4-yl)pyrazin-2-yl)-N-(2-hydroxy-1-phenylethyl)benzamide] | 3.39 nM
21 | Nc1ncc([C@H]2CNC(=O)C2)cc1-c1ccc(C(=O)N[C@H](CO)c2ccccc2)c(F)c1 [Example 220, 4-(2-amino-5-((S)-5-oxopyrrolidin-3-yl)pyridin-3-yl)-2-fluoro-N—((S)-2-hydroxy-1-phenylethyl)benzamide] | 72.3 nM

Continued by falling IC50, values first:

Row | IC50 | SMILES
22 | 274 nM | CC(CO)c1cnc(N)c(-c2ccc(C(=O)NCc3ccccc3)c(F)c2)n1 (racemic) [Example 115, (+/−)-4-(3-amino-6-(1-hydroxypropan-2-yl)pyrazin-2-yl)-N-benzyl-2-fluorobenzamide]
23 | 28.5 nM | Cn1cc(-c2cnc(N)c(-c3ccc(C(=O)NCc4ccsc4)c(F)c3)c2)cn1 [Example 239, 4-(2-amino-5-(1-methyl-1H-pyrazol-4-yl)pyridin-3-yl)-2-fluoro-N-(thiophen-3-ylmethyl) benzamide]
24 | 13.4 nM | COC(=O)N1CCCC(c2cnc(N)c(-c3ccc(C(=O)N[C@H](CO)c4ccccc4)c(F)c3)n2)C1 (stereo partly drawn) [Example 214, methyl 3-(5-amino-6-(3-fluoro-4-(((S)-2-hydroxy-1-phenylethyl)carbamoyl)phenyl)pyrazin-2-yl)piperidine-1-carboxylate]
25 | 8.39 nM | Nc1ncc(C2CCOCC2)nc1-c1ccc(C(=O)NC(c2ccccc2)C(F)F)c(F)c1 (racemic) [Example 50, (+/−)-4-(3-amino-6-(tetrahydro-2H-pyran-4-yl)pyrazin-2-yl)-N-(2,2-difluoro-1-phenylethyl)-2-fluorobenzamide]
26 | 7.76 nM | C[C@@H]1C[C@H](c2cnc(N)c(-c3ccc(C(=O)NCc4cccc(S(C)(=O)=O)c4)cc3)n2)CCO1 [Example 100, 4-(3-amino-6-((2R,4R)-2-methyltetrahydro-2H-pyran-4-yl)pyrazin-2-yl)-N-(3-(methylsulfonyl)benzyl)benzamide]
27 | 5.32 nM | CN1C[C@@H](c2cnc(N)c(-c3ccc(C(=O)N[C@H](CO)c4cccc(Cl)c4)c(F)c3)c2)CC1=O [Example 43, 4-(2-amino-5-((R)-1-methyl-5-oxopyrrolidin-3-yl)pyridin-3-yl)-N—((S)-1-(3-chlorophenyl)-2-hydroxyethyl)-2-fluorobenzamide]
28 | 4.79 nM | Nc1ncc(C2CCC(=O)NC2)nc1-c1ccc(C(=O)NCc2ccccc2)c(F)c1 (racemic) [Example 117, (+/−)-4-(3-amino-6-(6-oxopiperidin-3-yl)pyrazin-2-yl)-N-benzyl-2-fluorobenzamide]
29 | 3.27 nM | CN1CCC(c2cnc(N)c(-c3ccc(C(=O)N[C@H](CO)c4cccc(Cl)c4)c(F)c3)c2)CC1=O (stereo partly drawn) [Example 26, 4-(2-amino-5-(1-methyl-2-oxopiperidin-4-yl)pyridin-3-yl)-N—((S)-1-(3-chlorophenyl)-2-hydroxyethyl)-2-fluorobenzamide]
30 | 1.95 nM | C[C@@H](NC(=O)c1ccc(-c2nc([C@H]3CC[C@@H](O)CC3)cnc2N)cc1F)c1cc(F)cc(S(C)(=O)=O)c1 [Example 420, 4-(3-amino-6-((1s,4S)-4-hydroxy-cyclohexyl)pyrazin-2-yl)-2-fluoro-N-((R)-1-(3-fluoro-5-(methylsulfonyl)phenyl)ethyl) benzamide]
31 | 1.48 nM | CC(C)n1cc(-c2cnc(N)c(-c3ccc(C(=O)N[C@H](CO)c4cccc(S(C)(=O)=O)c4)c(F)c3)c2)cn1 [Example 291, (S)-4-(2-amino-5-(1-isopropyl-1H-pyrazol-4-yl)pyridin-3-yl)-2-fluoro-N-(2-hydroxy-1-(3-(methylsulfonyl)phenyl)ethyl) benzamide]
32 | 1.4 nM | Nc1ncc(-c2cnoc2)cc1-c1ccc(C(=O)N[C@H](CO)c2ccccc2)c(F)c1 [Example 164, (S)-4-(2-amino-5-(isoxazol-4-yl)pyridin-3-yl)-2-fluoro-N-(2-hydroxy-1-phenylethyl)benzamide]
33 | 1.14 nM | C[C@@H](NC(=O)c1ccc(-c2nc(C3CCN(S(C)(=O)=O)CC3)cnc2N)cc1F)c1cccc(Cl)c1 [Example 57]
34 | 0.343 nM | Nc1ncc(C2CCC(=O)NC2)cc1-c1ccc(C(=O)N[C@H](CO)c2cccc(Cl)c2)c(F)c1 (stereo partly drawn) [Example 25, 4-(2-amino-5-(6-oxopiperidin-3-yl)pyridin-3-yl)-N—((S)-1-(3-chlorophenyl)-2-hydroxyethyl)-2-fluorobenzamide]
